Results reported in patent publication US20160008380A1, “TARGETING GLUTAMINE METABOLISM IN BRAIN TUMORS” (THE JOHNS HOPKINS UNIVERSITY, priority 2013, published 2016).
Entries after “also recorded” stand apart in the source; their conditions may differ.

Experiments:
[1] = system: hindbrain derived neurospheres transduced with oncogenes not including MYC; experiment: BrdU proliferation assay, PNET models; type: cell-based, human; details: 10 uM DON, no MYC
Protocol: (§1) FIG. 10 A: Acivicin suppresses the growth of MYC containing human neural stem cell PNET models. Graph comparing percent BrdU positivity in mock treated (blue) and with 10 uM acivicin (red) treated cells. […] FIG. 10 B: Acivicin suppresses the growth of MYC containing human neural stem cell PNET models. The graph compares percent BrdU positivity in mock treated (blue) and with 10 uM DON (red) treated cells.
(§2) For measurement of proliferation, cells were treated with the indicated drug for 18 hours and were then pulsed with bromo-deoxyuridine for an additional 6 hours. Cells were triturated to single cells and then cytospun onto microscope slides. After washing cells once with PBS, they were fixed with 4% paraformaldehyde for 15 minutes, permeabilized with 0.1% Triton/PBS, denatured with 0.1N HCl for 15 minutes, then blocked with 5% normal goat serum/PBST or 5% BSA/PBST, and incubated with anti-BrdU (Sigma) antibody at 37 degrees for one hour. After washing three times with PBST, cells were incubated for 45 minutes in the dark with the appropriate Cy-2 or Cy-3 conjugated secondary antibody (Jackson Immunoresearch). […] Multiple high power fields were photographed at random, and the percent BrdU positivity was calculated by counting first BrdU positive cells and then DAPI positive cells and dividing the former by the latter. […]

[2] = system: UW228 (low-MYC medulloblastoma cell line); experiment: MTS cell growth assay; type: cell-based, human; details: UW228, 3 days of treatment at increasing concentrations
Protocol: (§3) FIG. 4: Growth as measured by MTS assay after 3 days of acivicin treatment at increasing doses. The low-MYC cell line, UW228 (FIG. 4A), is not sensitive to treatment with acivicin. The high-MYC cell lines, D283 (FIG. 4B) and D425 (FIG. 4C) are sensitive to acivicin, showing an inhibition of growth of approximately 50% or more at a concentration of 10 uM acivicin.
(§4) For relative cell growth assays, cells were seeded in 96-well plates in triplicate at densities of 5000 cells per well. Cell proliferation was monitored at the indicated number of days using the colorimetric CellTiter 96 MTS assay (Promega, Madison, Wis.).
(§5) We tested this hypothesis using UW228 (low MYC) and D283 and D425 (high MYC) medulloblastoma cell lines.

[3] = system: D425Med; experiment: Cleaved caspase-3 immunofluorescence (apoptosis); type: cell-based, human; details: n=3, p<0.05
Description: (§6) FIG. 11: Medulloblastoma cell lines expressing c-MYC and glutaminase (GLS) are sensitive to inhibitors of glutamine metabolism. c-MYC levels positively correlate with GLS levels in D425Med and D283Med (A) as indicated by western blot. The growth of D283Med (B) and D425Med (C) is inhibited when treated with DON or Acivicin as measured by MTS assay. […] Cells were fixed and stained with an anti-cleaved caspase-3 antibody followed by a Cy-3 conjugated secondary and a DAPI counterstain. Multiple images were taken of each treatment and Cy3 positive cells were counted using Adobe Photoshop. Representative images are in D. Acivicin and DON treatment cause an increase the in sub-G1 (apoptotic) population of D425Med (E) and D283Med (F) as measured by flow cytometry.

[4] = system: D425 (D425Med, high-MYC medulloblastoma cell line); experiment: MTS cell growth assay; type: cell-based, human; details: for growth as measured by MTS assay: D425 / D425Med, increasing concentrations
Protocol: as §3, §6, §4, §5

[5] = system: D283 (D283Med, high-MYC medulloblastoma cell line); experiment: MTS cell growth assay; type: cell-based, human; details: for growth as measured by MTS assay: D283 / D283Med, increasing concentrations
Protocol: as §3, §6, §4, §5

[6] = system: MYC transduced hindbrain derived human neural stem cell PNET models; experiment: BrdU proliferation assay, PNET models; type: cell-based; details: FIG. 10B
Protocol: as §1, §2

[7] = administered orally at therapeutically effective levels; cited from earlier work
[8] = system: neural stem cell models of medulloblastoma; experiment: Cleaved caspase-3 staining (apoptosis); type: cell-based, human; details: 72 h treatment, p<0.05
Protocol: (§7) Cells were treated with acivicin or DON for 72 h. The cells were then fixed and stained with an antibody for cleaved caspase-3, followed by a Cy-3 conjugated secondary and a DAPI counterstain. Multiple images were taken of each treatment and cleaved-caspase-3 positive cells counted using Adobe Photoshop. […] Control cells were unaffected by treatment. Representative images are seen in (B and D). Images colorized with Adobe Photoshop.

[9] = system: Control cells (neural stem cells); experiment: Cleaved caspase-3 staining (apoptosis); type: cell-based, human; details: 72 h treatment
Protocol: as §7

[10] = system: KNS42 (low-MYC glioma cell line); experiment: MTS cell growth assay; type: cell-based; details: KNS42, 3 days, same concentrations as SF188 and UW479
Protocol: FIG. 9: MTS assay showing sensitivity of high MYC SF188 and […] glioma cell lines and insensitivity of low-MYC KNS42 to glutamine metabolic inhibitors DON and acivicin. Cell growth was measured over 3 days at increasing concentrations of drug.
as §4

[11] = system: D283Med; experiment: Sub-G1 (apoptotic) population by flow cytometry; type: cell-based, human
Description: as §6

[12] = system: D425Med; experiment: Sub-G1 (apoptotic) population by flow cytometry; type: cell-based, human
Description: as §6

[13] = system: cortex derived neurospheres transduced with oncogenes not including MYC; experiment: BrdU proliferation assay, PNET models; type: cell-based, human; details: 10 uM acivicin, no MYC
Protocol: as §1, §2

[14] = system: MYC-driven human neural stem cell models of medulloblastoma (cerebellar neurospheres); experiment: BrdU proliferation assay; type: cell-based
Protocol: (§8) FIG. 6: Suppression of proliferation of MYC-driven human neural stem cell models of medulloblastoma by acivicin. Two human neurosphere lines were treated with 10 uM acivicin for four days. On the fourth day, the spheres were pulsed with BrdU for 6 h. Following the pulse, the spheres were made single cells and fixed onto glass slides. Staining was performed using an anti-BrdU antibody followed by a secondary antibody conjugated to Cy3 and a DAPI counterstain. Images were taken at 400× (FIG. 6A, top panel). DAPI positive and BrdU positive (red) cells in the image were counted using Adobe Photoshop (FIG. 6A, bottom panel). An average of % positive BrdU cells was taken from three images. Error bars indicate SEM. *p=0.012.
(§9) FIG. 14: Acivicin decreases proliferation in neural stem cell models of MYC-driven medulloblastoma. Human neural stem cells derived from the developing cerebellum were transduced with lentiviral vectors coding for oncogenic elements associated with high-risk, MYC-driven medulloblastoma. SV40 was used as a control to immortalize the cells. The transduced neural stem cells were treated with acivicin for 72 h, and pulsed with bromodeoxyuridine for the final 6 hours of treatment. Cells were fixed and stained with an anti-BrdU antibody followed by a Cy-3 conjugated secondary and a DAPI counterstain. Multiple images were taken of each treatment and BrdU positive cells were counted using Adobe Photoshop. […] Representative images are in B.
(§10) For measurement of proliferation, cells were treated with the indicated drug for 18 hours and were then pulsed with bromo-deoxyuridine for an additional 6 hours. Cells were triturated to single cells and then cytospun onto microscope slides. After washing cells once with PBS, they were fixed with 4% paraformaldehyde for 15 minutes, permeabilized with 0.1% Triton/PBS, denatured with 0.1N HCl for 15 minutes, then blocked with 5% normal goat serum/PBST or 5% BSA/PBST, and incubated with anti-BrdU (Sigma) antibody at 37 degrees for one hour. After washing three times with PBST, cells were incubated for 45 minutes in the dark with the appropriate Cy-2 or Cy-3 conjugated secondary antibody (Jackson Immunoresearch). Cells were counterstained with DAPI and mounted with anti-fade (Vectastain). Multiple high power fields were photographed at random, and the percent BrdU positivity was calculated by counting first BrdU positive cells and then DAPI positive cells and dividing the former by the latter.

[15] = system: human neural stem cells transformed without MYC (SV40 control); experiment: BrdU proliferation assay; type: cell-based
Protocol: as §8, §9, §10

[16] = system: MYC transduced cortex derived human neural stem cell PNET models; experiment: BrdU proliferation assay, PNET models; type: cell-based; details: FIG. 10A
Protocol: as §1, §2

[17] = system: non-MYC transformed neurospheres; experiment: Cell cycle analysis (sub 2N population, flow cytometry); type: cell-based, human; details: 3 days of treatment, propidium iodide flow cytometry
Protocol: (§11) FIG. 7: Cell cycle analysis was performed using a Guava flow cytometer following 3 days of treatment in acivicin. Neurospheres transfected with MYC show an increase in the sub 2N population following 3 days of treatment with acivicin, indicating an increase in apoptosis after treatment.
(§12) We also asked this question using human neural stem cell models of aggressive brain tumors. We compared the sensitivity of human neural stem cells transduced with a package of oncogenes that contain MYC versus those that were transformed without using MYC.

[18] = system: Neurospheres transfected with MYC; experiment: as above; type: cell-based, human; details: 3 days of treatment, propidium iodide flow cytometry
Protocol: as §11, §12

[19] = system: UW228 cells engineered to express MYC (UW228-UWM13); experiment: MTS cell growth assay; type: cell-based, human; details: 3 days of drug treatment
Protocol: Values show mean (n=3) and error bars indicated standard deviation. FIG. 5B: The percent decrease in optical density between no drug and 50 uM acivicin. Error bars indicate SEM. *P=0.00029.
as §4
We next investigated if increasing MYC and GLS expression in a low MYC cell line could confer sensitivity to glutamine anti-metabolites.

[20] = system: D283Med xenografts; experiment: D283Med orthotopic and flank xenografts in nude mice; type: in vivo; details: IP 75 mg/kg acivicin 4 times a week, four weeks
Protocol: FIG. 13: Mice treated with Acivicin develop fewer and smaller flank tumors than untreated mice. Ten immunodeficient (nude) mice received orthotopic and flank xenografts of D283Med. Mice in the treatment group (n=5) were treated 4 times a week with an IP dose of 75 mg/kg of acivicin each time. Mice in the control group (n=5) received an IP injection of sterile PBS. After four weeks, all mice were sacrificed and brains and any flank tumors removed. 100% of the control group developed flank tumors, while only 40% of the treatment group developed flank tumors. The PBS treated mice also developed larger flank tumors (A, bars indicate mean tumor size, error bars SD).

[21] = 10 uM acivicin, four days, BrdU pulse 6 h

[N-]=[N+]=CC(=O)CC[C@H](N)C(=O)O [DON, 6-Diazo-5-oxo-L-norleucine]
reduction in proliferation [1]: did not respond strongly; also recorded: slight reduction | growth as measured by MTS assay (sensitivity) [2]: relatively resistant | apoptosis (cleaved caspase-3 immunofluorescence) [3]: increase apoptosis | growth as measured by MTS assay [4]: suppressed; also recorded: inhibited | growth as measured by MTS assay [5]: suppressed; also recorded: inhibited | sensitivity of MYC driven PNET models [6]: sensitive | gastrointestinal (GI) toxicity [7]: results in gastrointestinal (GI) toxicity | apoptosis (cleaved-caspase-3 positive cells) [8]: significant increase in apoptosis | apoptosis (cleaved-caspase-3 positive cells) [9]: unaffected | reduction in growth [10]: modest reduction | sub-G1 (apoptotic) population [11]: increase | sub-G1 (apoptotic) population [12]: increase

N[C@H](C(=O)O)[C@@H]1CC(Cl)=NO1 [acivicin, (2S)-Amino[(5S)-3-chloro-4,5-dihydro-1,2-oxazol-5-yl]ethanoic acid]
reduction in proliferation [13]: did not respond strongly; also recorded: modest reduction | reduction of proliferation (% BrdU positive cells) [14, 21]: ~30% | growth after treatment (FIG. 6) ([14]; MYC-transformed human neural stem cells): decreased growth | proliferation (BrdU positive cells) ([14]; acivicin 72 h, BrdU for the final 6 hours): significant decrease | change in proliferation (% BrdU positive cells) [15, 21]: insensitive; also recorded: no change | proliferation (BrdU positive cells) ([15]; SV40 control, acivicin 72 h, BrdU for the final 6 hours): no change | growth as measured by MTS assay (sensitivity) [2]: relatively resistant; also recorded: virtually no suppression of growth; also recorded: not sensitive | apoptosis (cleaved caspase-3 immunofluorescence) [3]: increase apoptosis | growth as measured by MTS assay [4]: suppressed | growth as measured by MTS assay ([4]; listed as Acivicin): inhibited | inhibition at 10 µM ([4]; Homo sapiens, D425 Med, 72 h, D425, 10 uM acivicin, 3 days): ≥ 50% | growth as measured by MTS assay [5]: suppressed | growth as measured by MTS assay ([5]; listed as Acivicin): inhibited | inhibition at 10 µM ([5]; Homo sapiens, 72 h, D283, 10 uM acivicin, 3 days): ≥ 50% | sensitivity of MYC driven PNET models [16]: sensitive | sub 2N population (apoptosis) [17]: did not show an increase; also recorded: do not show any increase | sub 2N population (apoptosis) [18]: increased apoptosis; also recorded: increase | apoptosis (cleaved-caspase-3 positive cells) [8]: significant increase in apoptosis | apoptosis (cleaved-caspase-3 positive cells) [9]: unaffected | reduction in growth [10]: modest reduction | sub-G1 (apoptotic) population [11]: increase | sub-G1 (apoptotic) population [12]: increase | growth compared to parental UW228 cells (MTS) [19]: decreased growth | flank tumor size / tumor growth ([20]; vs PBS, 75 mg/kg): markedly smaller tumors; also recorded: inhibits tumor growth | mice that developed flank tumors ([20]; control group 100%): 40%
